Laboratory results as given in ChEMBL document CHEMBL3745645, “Synthesis, in vitro antitumor activity, dihydrofolate reductase inhibition, DNA intercalation and structure-activity relationship studies of 1,3,5-triazine analogues” (Bioorg Med Chem Lett, 2016).
Active and inactive are the calls of the source. No cut-off for these calls is given here.

Assays:
[1] = Cytotoxicity against human PC3 cells after 48 hrs by SRB assay; assay type: functional; settings: PC-3, 48 h; for GI50 / TGI: pooled result: one value given for 2 cell lines, strains, targets or settings
[2] = Cytotoxicity against human OVCAR3 cells at 10 uM after 48 hrs by SRB assay; assay type: functional; settings: OVCAR-3, 48 h, read-out: GI
SR [3] = assay: Cytotoxicity against human SR cells at 10 uM after 48 hrs by SRB assay; assay type: functional
[4] = Cytotoxicity against human IGROV1 cells at 10 uM after 48 hrs by SRB assay; assay type: functional; settings: IGROV-1, 48 h, read-out: GI
A549 [5] = assay: Cytotoxicity against human A549 cells at 10 uM after 48 hrs by SRB assay; assay type: functional; settings: A549, 48 h, read-out: GI
[6] = Cytotoxicity against human RPMI8226 cells after 48 hrs by SRB assay; assay type: functional; settings: RPMI-8226, 48 h, read-out: LC50 (the source's name)
786-0 [7] = assay: Cytotoxicity against human 786-0 cells after 48 hrs by SRB assay; assay type: functional; settings: 786-0, 48 h, pooled result: one value given for 8 cell lines, strains, targets or settings
Calf thymus DNA [8] = assay: Binding affinity to calf thymus DNA by fluorescence spectrophotometric analysis; assay type: nucleic-acid assay; settings: Bos taurus
MCF7 [9] = assay: Cytotoxicity against human MCF7 cells after 48 hrs by SRB assay; assay type: functional; settings: MCF7, 48 h, pooled result: one value given for 6 cell lines, strains, targets or settings
[10] = Cytotoxicity against human COLO205 cells after 48 hrs by SRB assay; assay type: functional; settings: COLO 205, 48 h, pooled result: one value given for 7 cell lines, strains, targets or settings
[11] = Cytotoxicity against human HCT116 cells at 10 uM after 48 hrs by SRB assay; assay type: functional; settings: HCT-116, 48 h, read-out: GI
K562 = assay: Cytotoxicity against human K562 cells at 10 uM after 48 hrs by SRB assay; assay type: functional; settings: K562, 48 h, read-out: GI
NCI-H460 = assay: Cytotoxicity against human NCI-H460 cells at 10 uM after 48 hrs by SRB assay; assay type: functional; settings: NCI-H460, 48 h, read-out: GI
[12] = Cytotoxicity against human IGROV1 cells after 48 hrs by SRB assay; assay type: functional; settings: IGROV-1, 48 h, pooled result: one value given for 7 cell lines, strains, targets or settings
T47D = assay: Cytotoxicity against human T47D cells at 10 uM after 48 hrs by SRB assay; assay type: functional
SR [13] = assay: Cytotoxicity against human SR cells after 48 hrs by SRB assay; assay type: functional
NCI-H522 = assay: Cytotoxicity against human NCI-H522 cells at 10 uM after 48 hrs by SRB assay; assay type: functional
KM12 = assay: Cytotoxicity against human KM12 cells at 10 uM after 48 hrs by SRB assay; assay type: functional; settings: KM12, 48 h, read-out: GI
Dihydrofolate reductase = target: T1, Dihydrofolate reductase (Homo sapiens, UniProt P00374); assay: Inhibition of human recombinant DHFR expressed in Escherichia coli by spectrophotometric analysis
T1 sequence (P00374 whole entry): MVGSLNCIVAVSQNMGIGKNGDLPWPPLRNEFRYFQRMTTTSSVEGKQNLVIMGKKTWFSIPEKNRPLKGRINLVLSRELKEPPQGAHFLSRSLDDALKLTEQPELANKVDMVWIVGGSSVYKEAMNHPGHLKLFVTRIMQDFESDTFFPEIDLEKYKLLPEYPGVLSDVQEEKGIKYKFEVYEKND

Calf thymus DNA [14] = assay: Binding affinity to calf thymus DNA assessed as melting temperature by spectrophotometric analysis (reference value: 60 degC); assay type: nucleic-acid assay; settings: Bos taurus
[15] = Cytotoxicity against human OVCAR5 cells at 10 uM after 48 hrs by SRB assay; assay type: functional; settings: OVCAR-5, 48 h, read-out: GI
U-251 = assay: Cytotoxicity against human U251 cells at 10 uM after 48 hrs by SRB assay; assay type: functional; settings: U-251, 48 h, read-out: GI
NCI-H226 = assay: Cytotoxicity against human NCI-H226 cells at 10 uM after 48 hrs by SRB assay; assay type: functional; settings: NCI-H226, 48 h, read-out: GI
MCF7 [16] = assay: Cytotoxicity against human MCF7 cells at 10 uM after 48 hrs by SRB assay; assay type: functional; settings: MCF7, 48 h, read-out: GI
ACHN = assay: Cytotoxicity against human ACHN cells at 10 uM after 48 hrs by SRB assay; assay type: functional; settings: read-out: GI
[17] = Cytotoxicity against human SF539 cells at 10 uM after 48 hrs by SRB assay; assay type: functional; settings: SF-539, 48 h, read-out: GI
MDA-MB-468 = assay: Cytotoxicity against human MDA-MB-468 cells at 10 uM after 48 hrs by SRB assay; assay type: functional
MDA-MB-435 = assay: Cytotoxicity against human MDA-MB-435 cells at 10 uM after 48 hrs by SRB assay; assay type: functional; settings: MDA-MB-435, 48 h, read-out: GI
Calf thymus DNA [18] = assay: Binding affinity to calf thymus DNA by UV-vis spectrometric analysis; assay type: nucleic-acid assay; settings: Bos taurus
[19] = Cytotoxicity against human SNB19 cells at 10 uM after 48 hrs by SRB assay; assay type: functional; settings: SNB-19, 48 h, read-out: GI
786-0 [20] = assay: Cytotoxicity against human 786-0 cells at 10 uM after 48 hrs by SRB assay; assay type: functional
HT-29 = assay: Cytotoxicity against human HT-29 cells at 10 uM after 48 hrs by SRB assay; assay type: functional
[21] = Cytotoxicity against human RXF393 cells at 10 uM after 48 hrs by SRB assay; assay type: functional; settings: RXF 393, 48 h, read-out: GI
[22] = Cytotoxicity against human HL-60(TB) cells after 48 hrs by SRB assay; assay type: functional; settings: HL-60, 48 h, read-out: LC50 (the source's name)
NCI-H322M = assay: Cytotoxicity against human NCI-H322M cells at 10 uM after 48 hrs by SRB assay; assay type: functional; settings: read-out: GI
Malme-3M = assay: Cytotoxicity against human MALME-3M cells at 10 uM after 48 hrs by SRB assay; assay type: functional
[23] = Cytotoxicity against human SNB75 cells at 10 uM after 48 hrs by SRB assay; assay type: functional; settings: SNB-75, 48 h, read-out: GI
A549 [24] = assay: Cytotoxicity against human A549 cells after 48 hrs by SRB assay; assay type: functional; settings: A549, 48 h, pooled result: one value given for 8 cell lines, strains, targets or settings
[25] = Cytotoxicity against human HOP92 cells at 10 uM after 48 hrs by SRB assay; assay type: functional; settings: HOP-92, 48 h, read-out: GI
[26] = Cytotoxicity against human MOLT4 cells at 10 uM after 48 hrs by SRB assay; assay type: functional; settings: MOLT-4, 48 h, read-out: GI

COc1ccc(-c2nc(Nc3ccc(F)cc3)nc(Nc3ccc4c(c3)nc(C)n4Cc3ccccc3)n2)cc1
LC50 [1]: > 100 µM | GI50 [1]: 5.35 µM | TGI [1]: > 100 µM | inhibition of growth at 10 µM [2]: 49.5% | growth inhibition (GI) (SR [3]): Active | inhibition of growth at 10 µM [4]: 63.6% | inhibition of growth at 10 µM (A549 [5]): 68% | CC50 [6]: > 100 µM | GI50 (786-0 [7]): 3.4 µM | LC50 (concentration killing 50% of cells) (786-0 [7]): > 100 µM | TGI (786-0 [7]): 27.7 µM | Ka (Calf thymus DNA [8]): 1.5 ×10⁴ /M | GI50 (MCF7 [9]): 3.6 µM | LC50 (concentration killing 50% of cells) (MCF7 [9]): > 100 µM | TGI (MCF7 [9]): 23.4 µM | GI50 [10]: 3.52 µM | LC50 [10]: 18.2 µM | TGI [10]: 14.4 µM | inhibition of growth at 10 µM [11]: 76.6% | inhibition of growth at 10 µM (K562): 83.4% | inhibition of growth at 10 µM (NCI-H460): 69.7% | GI50 [12]: 4.79 µM | LC50 (concentration killing 50% of cells) [12]: > 100 µM | TGI [12]: 40.5 µM | inhibition of growth at 10 µM (T47D; read-out: GI): 88.5% | LC50 (concentration killing 50% of cells) (SR [13]): > 100 µM | inhibition of growth at 10 µM (NCI-H522; NCI-H522, 48 h, read-out: GI): 44.6% | inhibition of growth at 10 µM (KM12): 74% | IC50 (Dihydrofolate reductase): 0.32 µM | Tm (Calf thymus DNA [14]): 67.5 °C | inhibition of growth at 10 µM [15]: 11.9% | inhibition of growth at 10 µM (U-251): 60.8% | inhibition of growth at 10 µM (NCI-H226): 33.4% | inhibition of growth at 10 µM (MCF7 [16]): 77.4% | inhibition of growth at 10 µM (ACHN): 62.9% | inhibition of growth at 10 µM [17]: 32.2% | inhibition of growth at 10 µM (MDA-MB-468; MDA-MB-468, 48 h, read-out: GI): 71.6% | inhibition of growth at 10 µM (MDA-MB-435): 65.9% | Ka (Calf thymus DNA [18]): 2.96 ×10⁴ /M | inhibition of growth at 10 µM [19]: 39.3% | inhibition of growth at 10 µM (786-0 [20]; 786-0, 48 h, read-out: GI): 53.3% | inhibition of growth at 10 µM (HT-29; HT-29, 48 h, read-out: GI): 91.1% | inhibition of growth at 10 µM [21]: 64.3% | CC50 [22]: > 100 µM | inhibition of growth at 10 µM (NCI-H322M): 17.6% | inhibition of growth at 10 µM (Malme-3M; read-out: GI): 47.2% | inhibition of growth at 10 µM [23]: 32% | GI50 (A549 [24]): 5.14 µM | LC50 (A549 [24]): > 100 µM | TGI (A549 [24]): 20.9 µM | inhibition of growth at 10 µM [25]: 60.3%

Cc1nc2cc(Nc3nc(Nc4ccc(F)cc4)nc(N4CCN(C)CC4)n3)ccc2n1Cc1ccccc1
LC50 [1]: 20.5 µM | GI50 [1]: 1.89 µM | TGI [1]: 4.38 µM | growth inhibition (GI) (SR [3]): Active | inhibition of growth at 10 µM [4]: 75.4% | inhibition of growth at 10 µM (A549 [5]): 92.8% | CC50 [6]: 8.47 µM | GI50 (786-0 [7]): 1.77 µM | LC50 (concentration killing 50% of cells) (786-0 [7]): 9.66 µM | TGI (786-0 [7]): 3.81 µM | inhibition of growth at 10 µM [26]: 98.9% | Ka (Calf thymus DNA [8]): 3.36 ×10⁴ /M | GI50 (MCF7 [9]): 1.61 µM | LC50 (concentration killing 50% of cells) (MCF7 [9]): 7.54 µM | TGI (MCF7 [9]): 3.6 µM | GI50 [10]: 1.66 µM | LC50 [10]: 7.15 µM | TGI [10]: 3.44 µM | inhibition of growth at 10 µM (K562): 99.6% | inhibition of growth at 10 µM (NCI-H460): 96.6% | GI50 [12]: 2.16 µM | LC50 (concentration killing 50% of cells) [12]: 15.5 µM | TGI [12]: 5.25 µM | growth inhibition (GI) (T47D): Active | LC50 (concentration killing 50% of cells) (SR [13]): 8.47 µM | growth inhibition (GI) (NCI-H522): Active | inhibition of growth at 10 µM (KM12): 83% | IC50 (Dihydrofolate reductase): 0.31 µM | Tm (Calf thymus DNA [14]): 65.6 °C | inhibition of growth at 10 µM [15]: 57.1% | inhibition of growth at 10 µM (NCI-H226): 35% | inhibition of growth at 10 µM (MCF7 [16]): 82.1% | inhibition of growth at 10 µM (ACHN): 90.3% | growth inhibition (GI) (MDA-MB-468): Active | inhibition of growth at 10 µM (MDA-MB-435): 99.8% | Ka (Calf thymus DNA [18]): 2.92 ×10⁴ /M | inhibition of growth at 10 µM [19]: 55.8% | growth inhibition (GI) (786-0 [20]): Active | growth inhibition (GI) (HT-29): Active | CC50 [22]: 8.47 µM | growth inhibition (GI) (Malme-3M): Active | GI50 (A549 [24]): 1.84 µM | LC50 (A549 [24]): 7.52 µM | TGI (A549 [24]): 3.86 µM | inhibition of growth at 10 µM [25]: 97.5%
